The values that follow come from patent publication US8119116B2, “Therapeutics for cancer using 3-bromopyruvate and other selective inhibitors of ATP production” (John Hopkins University School of Medicine, priority 2001, dated 2012).

The test system of assay [1] is VX2 tumor slices. Kind of assay: Glycolysis (lactic acid formation) in VX2 tumor slices. The assay is classed as cell-based, rabbit. Particulars: for inhibition of VX2 tumor glycolysis in the limited screen: 6 mM agent, 6 mM glucose, 37° C., 5 h. Here is the method: Glycolysis was assayed by monitoring the formation of lactic acid following the addition of glucose to a medium containing VX2 tumor slices. Specifically, freshly excised tumors were washed 3 times at 4° C. in 20 ml Chance Hess Medium containing 6.2 mM KCl, 154 mM NaCl, and 11 mM NaPi, pH 7.4. Slices, 1 g each, were then prior incubated for 30 min in a Lab-Line incubator-shaker at 37° C. in 2 ml of the same medium while shaking at 50 rpm. Glucose was then added to give a final concentration of 6 mM, after which the incubation/shaking process was continued with 0.2 ml samples being removed every 30 min for up to 2 h. These samples were subjected to centrifugation at 14,000 rpm in an Eppendorf Centrifuge (Model 5415C). Then, aliquots of the supernatant, 0.01 ml, were removed from each sample, diluted with 0.03 ml of water and subjected to lactic acid determination using the kit supplied by Sigma. The latter contains, in addition to lactic dehydrogenase and NAD+, hydrazine, and glycine buffer, pH 9.2. The mixture was incubated for 30 min at 25° C. after which the absorbance due to formation of NADH was determined at 340 nm using a Gilford Model 260 spectrophotometer. To assess the elevation of the glycolytic activity of the VX2 tumor over that of liver tissue, parallel studies were always carried out in an identical manner with 1 g liver slices derived from the host liver. Finally, in those cases where agents were tested for their capacity to inhibit glycolysis, these were introduced into the system at the prior incubation step with all subsequent steps being run in parallel with those described above for the VX2 tumor or liver alone.
The screen included the following 9 compounds: 2-deoxyglucose (2DOG), 2-fluoro-2-deoxyglucose, 6-fluoro-6-deoxyglucose, 3-O-methyl glucose, 5-thio-D-glucose-6-phosphate, L-glucose, D-xylose, D-lyxose, and 3-bromopyruvic acid (3BrPA). The screen was conducted by incubating VX2 tumor slices in a medium containing 6 mM glucose with 6 mM of each of these agents at 37° C. for 5 h. The use of 6 mM glucose in the medium was used to mimic the maximal amount of glucose that might be in the blood in a real in vivo situation.
With the above preliminary data at hand, only two of the 9 compounds screened were studied in more detail. One was 2DOG because under certain conditions it is known to inhibit glycolysis when it is phosphorylated by hexokinase to 2DOG-6-P which cannot be further metabolized. The other compound tested in more detail was 3BrPA because of its effectiveness as a glycolytic inhibitor in the preliminary screen.

The test system of assay [2] is AS-30D hepatoma cells. Kind of assay: Hepatoma cell viability by trypan blue. It counts as cell-based, rat. Particulars: 20 mM, 12 h. Here is the method: AS-30D hepatoma cells grown in the peritoneal cavity of Sprague Dawley female rats (see Materials) were adapted to grow in tissue culture in Dulbecco's modified Eagle's medium containing 10% fetal bovine serum. Cells were maintained at 37° C. in a humidified atmosphere containing 5% CO2, and counted in a Neubauer chamber after trypan blue dye addition (cell/dye volume=1/1) by visualization under a Nikon inverted microscope.
The studies described above using the VX2 tumor model for liver cancer predict that 2DOG and 3BrPA may have the capacity to kill hepatoma cells expressing the high glycolytic/high hexokinase phenotype. […] Cell killing was assessed in these experiments by counting those cells in which trypan blue had entered.

For `O=C[C@H](O)[C@@H](O)[C@H](O)[C@H](S)COP(=O)(O)O` [5-thio-D-glucose-6-phosphate], the “inhibition of VX2 tumor glycolysis in the limited screen” value (shortened to “inhibition … in the limited screen”) in assay [1] is reported as “ineffective”.

Consider `O=C[C@H](O)[C@@H](O)[C@H](O)[C@H](O)CF` [6-fluoro-6-deoxyglucose], for which the “inhibition … in the limited screen” value in assay [1] is listed as “ineffective”.

For the compound `O=C[C@H](O)[C@@H](O)[C@H](O)CO` [D-xylose], the “inhibition … in the limited screen” value in assay [1] is “ineffective”.

Regarding `O=C[C@@H](O)[C@H](O)[C@@H](O)[C@@H](O)CO` [L-glucose], in assay [1], the “inhibition … in the limited screen” value was “ineffective”.

As to `O=C[C@@H](O)[C@@H](O)[C@H](O)CO` [D-lyxose], the “inhibition … in the limited screen” value in assay [1] is “ineffective”.

As for `CO[C@@H]([C@H](O)[C@H](O)CO)[C@@H](O)C=O` [3-O-methyl glucose], the “inhibition … in the limited screen” value in assay [1] is on record as “ineffective”.

For the compound `O=CC[C@@H](O)[C@H](O)[C@H](O)CO` [2DOG, 2-deoxyglucose], the “inhibition … in the limited screen” value in assay [1] is given as “ineffective”. Moreover, the IC50 in assay [1] (Oryctolagus cuniculus, 0.5 h, VX2 tumor slices, agent prior incubated 30 min at 37° C., read-out: half maximal inhibition of glycolysis) is about 15 mM. The “concentration for maximal or complete inhibition of glycolysis” value in assay [1] (VX2 tumor slices, agent prior incubated 30 min at 37° C.) is reported as about 50 mM. Further, the “maximal inhibition of glycolysis” value in assay [1] (VX2 tumor slices, at almost 50 mM) is on record as 70%. The “cells killed (trypan blue uptake)” value in assay [2] is recorded as “about 80%”.

On to `O=C[C@H](F)[C@@H](O)[C@H](O)[C@H](O)CO` [2-fluoro-2-deoxyglucose], for which the “inhibition … in the limited screen” value in assay [1] is “ineffective”.
